{
  "source": "paper PMC8765437",
  "about": "“GSK3640254 Is a Novel HIV-1 Maturation Inhibitor with an Optimized Virology Profile” (Antimicrobial Agents and Chemotherapy, 2022)",
  "test_system": "NLRepRlucP373S viruses containing Gag SDMs or gag/pr genes from clinical isolates",
  "experiment": "Multiple-cycle replication assay, NLRepRluc reporter viruses in MT-2 cells, luciferase endpoint",
  "type": "cell-based, HIV-1",
  "text": "Multiple-cycle assays using recombinant viruses or clinical isolates were used to assess MI antiviral activity as described previously ([10]). pNLRepRlucP373S (the P373S change is in the Gag gene and converts an outlier polymorphism in the NL4-3 gene to the prevalent amino acid in the population) plasmids containing SDMs in Gag or gag/pr regions from clinical isolates were transfected into HEK 293T cells, and the supernatant containing recombinant virus was harvested after 4 to 5 days. Virus was used to infect MT-2 cells in the presence of a 3-fold serially diluted compound at a final dimethyl sulfoxide (DMSO) concentration of 1%. The inocula of the reporter viruses were determined based on the luciferase activity detected on day 4 postinfection. The MOI (ratio of infectious virions to target cells) of reporter-free laboratory strains and clinical isolates was 0.005, as derived from a tissue culture infectious dose study. Clinical isolates or reporter-free viruses were examined in the reporter CEM-NKR-CCR5-Luc cells or PBMCs at MOIs ranging from 0.005 to 0.01. Each infection started with a drug-free preincubation of the cell-virus mixtures, performed at 37°C and 5% CO2 for either 1 h at 2 times the final cell density (reporter viruses) or 1 h (reporter-free laboratory strains) or 3 h (clinical isolates) using cell pellets in 0.5 mL of medium. After preincubation, cell-virus mixtures were added to compound-containing 96-well plates for a final cell density of either 10,000 (MT-2 cells for reporter viruses), 20,000 (MT-2 and PM1 cells for reporter-free laboratory strains), 200,000 (PBMCs for clinical isolates), or 500,000 (CEM-NKR-CCR5-Luc for reporter-free laboratory strains) cells per well. The CEM-NKR-CCR5-Luc cell assay was performed in the presence of Polybrene (10 μg/mL). Virus growth was determined on days 4 to 5 postinfection for reporter variants or days 5 to 11 for the other viruses. The reporter viruses were detected by a luciferase assay according to manufacturer protocols (Brite-Glo luciferase kit [Promega] for CEM-NKR-CCR5-Luc cells and Dual-Luciferase Reporter 1000 assay system [Promega] for the other cells), and luminescence was detected on a Wallac Trilux. The growth of clinical isolates in PBMCs was quantitated by reverse transcriptase activity in a 96-well scintillation proximity assay (SPA). Twenty microliters of culture supernatants was mixed with 40 μL of reaction cocktail (62.5 mM Tris-HCl [pH 7.8], 100 mM KCl, 0.0625% NP-40, 2.5 mM dithiothreitol [DTT], 6.25 mM MgCl2, 1 mM EGTA, 6.25 μg/mL of poly rA, 2.5 μg/mL of streptavidin SPA beads prebound with biotinylated-dT12-18, and 1 μCi of [^3H]TTP). Mixtures were incubated at 37°C for ∼3 h and quenched with 100 μl of 0.25 M EDTA per well. Luminescence was detected on a Wallac Trilux programmed for tritium counting with SPA beads in opaque plates. The growth of the reporter-free laboratory M-tropic strains and clinical isolates was monitored by a p24 enzyme-linked immunosorbent assay (ELISA; PerkinElmer Life Sciences, Waltham, MA) performed on culture supernatants. […] A 1:1,000 dilution of cell supernatant in PBS was generally observed to fall in the dynamic range of the endpoint signal.\nMaximal percent inhibition values were calculated as MPI = 100 – (mean signals at the 2 highest concentrations of compound/mean signal of 2 no-drug control wells) × 100.",
  "note": "Read-outs that look alike come from different tables or passages of the source.",
  "data": [
    {"smiles": "C=C(C)[C@@H]1CC[C@]2(NCCN3CCS(=O)(=O)CC3)CC[C@]3(C)[C@H](CC[C@@H]4[C@@]5(C)CC=C(c6ccc(C(=O)O)cc6)C(C)(C)[C@@H]5CC[C@]43C)[C@@H]12", "note": "[GSK’795, reference compound]", "values": [
      {"measurement": "EC90", "setting": "Human immunodeficiency virus 1, MT2, read-out: PBA EC90, subtype B gag/pr 1000156 (V362I)", "value": 600, "unit": "nM"},
      {"measurement": "EC90", "setting": "Human immunodeficiency virus 1, MT2, read-out: PBA EC90, subtype B gag/pr 1900120 (V370M)", "value": 6000, "unit": "nM"},
      {"measurement": "EC90", "setting": "Human immunodeficiency virus 1, MT2, read-out: PBA EC90, subtype B gag/pr 1900140 (V362I)", "value": 1930, "unit": "nM"},
      {"measurement": "EC90", "setting": "Human immunodeficiency virus 1, MT2, read-out: PBA EC90, subtype C gag/pr 93MW690", "value": 1370, "unit": "nM"},
      {"measurement": "EC90", "setting": "Human immunodeficiency virus 1, MT2, read-out: PBA EC90, subtype C gag/pr 97ZA003", "value": 2400, "unit": "nM"},
      {"measurement": "EC90", "setting": "Human immunodeficiency virus 1, MT2, read-out: PBA EC90, subtype C gag/pr 98CN009", "value": 1870, "unit": "nM"},
      {"measurement": "EC90", "setting": "Human immunodeficiency virus 1, MT2, read-out: PBA EC90, subtype C gag/pr 98IN026", "value": 70, "unit": "nM"},
      {"measurement": "EC90", "setting": "Human immunodeficiency virus 1, MT2, read-out: PBA EC90, subtype C gag/pr 10215-6", "value": 12000, "unit": "nM"},
      {"measurement": "EC90", "setting": "Human immunodeficiency virus 1, MT2, read-out: PBA EC90, subtype C gag/pr 11657-3", "value": 400, "unit": "nM"},
      {"measurement": "EC90", "setting": "Human immunodeficiency virus 1, MT2, read-out: PBA EC90, subtype C gag/pr 20635-4", "value": 1700, "unit": "nM"},
      {"measurement": "EC90", "setting": "Human immunodeficiency virus 1, MT2, read-out: PBA EC90, subtype C gag/pr 20706-3", "value": 370, "unit": "nM"},
      {"measurement": "EC90", "setting": "Human immunodeficiency virus 1, MT2, read-out: PBA EC90, subtype C gag/pr 1300495", "value": 2270, "unit": "nM"},
      {"measurement": "EC90", "setting": "Human immunodeficiency virus 1, MT2, read-out: PBA EC90, subtype C gag/pr 1700141", "value": 370, "unit": "nM"},
      {"measurement": "EC90", "setting": "Human immunodeficiency virus 1, MT2, read-out: PBA EC90, subtype C gag/pr 1900543", "value": 280, "unit": "nM"},
      {"measurement": "EC90", "setting": "Human immunodeficiency virus 1, MT2, read-out: PBA EC90: Mean, minilibrary of HIV-1 polymorphisms, Fig. 1B, GSK’795 mean without 3 viruses lacking measurable EC90", "value": 44800, "unit": "nM"},
      {"measurement": "EC50", "setting": "Human immunodeficiency virus 1, MT2, subtype B gag/pr 4NRR (Wild-type)", "value": 1, "unit": "nM"},
      {"measurement": "EC50", "setting": "Human immunodeficiency virus 1, MT2, subtype B gag/pr 28-MDR (Wild-type)", "value": 6, "unit": "nM"},
      {"measurement": "EC50", "setting": "Human immunodeficiency virus 1, MT2, subtype B gag/pr 92BR014 (V370M)", "value": 4, "unit": "nM"},
      {"measurement": "EC50", "setting": "Human immunodeficiency virus 1, MT2, subtype B gag/pr 92BR018 (V, QAΔ)", "value": 3, "unit": "nM"},
      {"measurement": "EC50", "setting": "Human immunodeficiency virus 1, MT2, subtype B gag/pr 92TH014 (V362I)", "value": 5, "unit": "nM"},
      {"measurement": "EC50", "setting": "Human immunodeficiency virus 1, MT2, subtype B gag/pr 92TH026 (V362I)", "value": 10, "unit": "nM"},
      {"measurement": "EC50", "setting": "Human immunodeficiency virus 1, MT2, subtype B gag/pr 92US072 (V362I)", "value": 3, "unit": "nM"},
      {"measurement": "EC50", "setting": "Human immunodeficiency virus 1, MT2, subtype B gag/pr 92US729 (Wild-type)", "value": 1, "unit": "nM"},
      {"measurement": "EC50", "setting": "Human immunodeficiency virus 1, MT2, subtype B gag/pr 93BR008 (V362I)", "value": 4, "unit": "nM"},
      {"measurement": "EC50", "setting": "Human immunodeficiency virus 1, MT2, subtype B gag/pr 93BR009 (V370M)", "value": 2, "unit": "nM"},
      {"measurement": "EC50", "setting": "Human immunodeficiency virus 1, MT2, subtype B gag/pr 93BR017 (V, QAΔ)", "value": 16, "unit": "nM"},
      {"measurement": "EC50", "setting": "Human immunodeficiency virus 1, MT2, subtype B gag/pr 93BR022 (V, QAΔ)", "value": 10, "unit": "nM"},
      {"measurement": "EC50", "setting": "Human immunodeficiency virus 1, MT2, subtype B gag/pr 93BR024 (V362I)", "value": 54, "unit": "nM"},
      {"measurement": "EC50", "setting": "Human immunodeficiency virus 1, MT2, subtype B gag/pr 93TH0647 (V362I)", "value": 3, "unit": "nM"},
      {"measurement": "EC50", "setting": "Human immunodeficiency virus 1, MT2, subtype B gag/pr 93US141 (V362I)", "value": 9, "unit": "nM"},
      {"measurement": "EC50", "setting": "Human immunodeficiency virus 1, MT2, subtype B gag/pr 93US155 (V370T)", "value": 5, "unit": "nM"},
      {"measurement": "EC50", "setting": "Human immunodeficiency virus 1, MT2, subtype B gag/pr 411-1-C (Wild-type)", "value": 1, "unit": "nM"},
      {"measurement": "EC50", "setting": "Human immunodeficiency virus 1, MT2, subtype B gag/pr 220162 (Wild-type)", "value": 5, "unit": "nM"},
      {"measurement": "EC50", "setting": "Human immunodeficiency virus 1, MT2, subtype B gag/pr 400024 (V370M)", "value": 19, "unit": "nM"},
      {"measurement": "EC50", "setting": "Human immunodeficiency virus 1, MT2, subtype B gag/pr 400051 (V370A)", "value": 2, "unit": "nM"},
      {"measurement": "EC50", "setting": "Human immunodeficiency virus 1, MT2, subtype B gag/pr 1000156 (V362I)", "value": 9, "unit": "nM"},
      {"measurement": "EC50", "setting": "Human immunodeficiency virus 1, MT2, subtype B gag/pr 1900120 (V370M)", "value": 8, "unit": "nM"},
      {"measurement": "EC50", "setting": "Human immunodeficiency virus 1, MT2, subtype B gag/pr 1900140 (V362I)", "value": 3, "unit": "nM"},
      {"measurement": "EC50", "setting": "Human immunodeficiency virus 1, MT2, subtype C gag/pr 93MW690", "value": 10, "unit": "nM"},
      {"measurement": "EC50", "setting": "Human immunodeficiency virus 1, MT2, subtype C gag/pr 97ZA003", "value": 6, "unit": "nM"},
      {"measurement": "EC50", "setting": "Human immunodeficiency virus 1, MT2, subtype C gag/pr 98CN009", "value": 11, "unit": "nM"},
      {"measurement": "EC50", "setting": "Human immunodeficiency virus 1, MT2, subtype C gag/pr 98IN026", "value": 3, "unit": "nM"},
      {"measurement": "EC50", "setting": "Human immunodeficiency virus 1, MT2, subtype C gag/pr 10215-6", "value": 7, "unit": "nM"},
      {"measurement": "EC50", "setting": "Human immunodeficiency virus 1, MT2, subtype C gag/pr 11657-3", "value": 6, "unit": "nM"},
      {"measurement": "EC50", "setting": "Human immunodeficiency virus 1, MT2, subtype C gag/pr 20706-3", "value": 4, "unit": "nM"},
      {"measurement": "EC50", "setting": "Human immunodeficiency virus 1, MT2, subtype C gag/pr 1300495", "value": 22, "unit": "nM"},
      {"measurement": "EC50", "setting": "Human immunodeficiency virus 1, MT2, subtype C gag/pr 1700141", "value": 8, "unit": "nM"},
      {"measurement": "EC50", "setting": "Human immunodeficiency virus 1, MT2, subtype C gag/pr 1900543", "value": 7, "unit": "nM"},
      {"measurement": "MPI", "setting": "SDM A326T/V362I/V370A", "value": 6, "unit": "%"},
      {"measurement": "MPI", "setting": "SDM A364V", "value": 16, "unit": "%"},
      {"measurement": "MPI", "setting": "SDM R361K/V362I/L363M", "value": 68, "unit": "%"},
      {"measurement": "MPI", "setting": "SDM T332S/V362I/prR41G", "value": 65, "unit": "%"},
      {"measurement": "MPI", "setting": "SDM V362I/V370A", "value": 31, "unit": "%"},
      {"measurement": "MPI", "setting": "SDM V370A", "value": 84, "unit": "%"},
      {"measurement": "MPI", "setting": "SDM Wild type", "value": 94, "unit": "%"},
      {"measurement": "MPI", "setting": "SDM ΔV370", "value": 87, "unit": "%"},
      {"measurement": "EC50", "setting": "read-out: EC50 (range), Subtype B gag/pr viruses, n=24", "value": "1 to 1400", "unit": "nM"}
    ]}
  ]
}
